Values quoted from earlier work as cited in US6951877B2, “Materials and methods for treating hypercholesterolemia” (ARYx Therapeutics, Inc., priority 2002, dated 2005).
Read-outs that look alike come from different tables or passages of the source. Each block holds one compound with its values, some of them ahead of it.

Key:
[1] = tested on: patients
[2] = tested on: patients; remark: listed apart in the source
[3] = tested on: asymptomatic, middle-aged men with primary hypercholesterolemia

patients with elevated liver enzymes ([1]; 40 mg): 0.6%
patients with elevated liver enzymes ([1]; 80 mg): 2.3%
patients with elevated liver enzymes ([1]; doses of 10 or 20 mg): 0.2%
Compound: CC(C)c1c(C(=O)Nc2ccccc2)c(-c2ccccc2)c(-c2ccc(F)cc2)n1CC[C@@H](O)C[C@@H](O)CC(=O)O [atorvastatin]

Compound: COCc1c(C(C)C)nc(C(C)C)c(/C=C/[C@@H](O)C[C@@H](O)CC(=O)O)c1-c1ccc(F)cc1 [cerivastatin]
U.S. deaths due to severe rhabdomyolysis reported to FDA ([2]; all reports associated with use of cerivastatin): 31
U.S. deaths due to severe rhabdomyolysis reported to FDA ([2]; concomitant gemfibrozil use): 12

Compound: Cc1ccc(C)c(OCCCC(C)(C)C(=O)O)c1 [gemfibrozil]
reduction in CHD risk ([3]; over the 5-year follow-up period): 34%
HDL cholesterol ([3]; treatment with gemfibrozil): increased HDL cholesterol
LDL cholesterol ([3]; treatment with gemfibrozil): lowered LDL, cholesterol
